In the NIST ThermoML archive (doi:10.1021/je0601457):

Assay: xn = mol fraction of the nth substance listed

Cc1cnccn1 [2-methylpyrazine] + O=C=O
Fluid (supercritical or subcritical phases), Linear displacement technique
Settings	mass density [kg/m3]
305.05 K, 15480 kPa, x1 = 0.624	942
307.45 K, 8340 kPa, x1 = 0.339	950
307.45 K, 11280 kPa, x1 = 0.339	957
307.45 K, 16170 kPa, x1 = 0.339	965
307.55 K, 2720 kPa, x1 = 0.857	922
307.55 K, 4900 kPa, x1 = 0.857	926
307.55 K, 6860 kPa, x1 = 0.857	928
307.55 K, 11550 kPa, x1 = 0.857	934
309.15 K, 8070 kPa, x1 = 0.122	948
309.15 K, 11140 kPa, x1 = 0.122	972
309.15 K, 14720 kPa, x1 = 0.122	992
309.95 K, 8520 kPa, x1 = 0.017	652
309.95 K, 10170 kPa, x1 = 0.017	701
309.95 K, 11590 kPa, x1 = 0.017	724
311.75 K, 8520 kPa, x1 = 0.033	764
311.75 K, 10790 kPa, x1 = 0.033	831
311.75 K, 13310 kPa, x1 = 0.033	871
311.75 K, 15760 kPa, x1 = 0.033	905
315.25 K, 9690 kPa, x1 = 0.039	722
315.25 K, 10690 kPa, x1 = 0.039	749
315.25 K, 12660 kPa, x1 = 0.039	777
315.25 K, 14660 kPa, x1 = 0.039	812
315.45 K, 8620 kPa, x1 = 0.062	781
315.45 K, 11210 kPa, x1 = 0.062	824
315.45 K, 13170 kPa, x1 = 0.062	846
315.45 K, 16310 kPa, x1 = 0.062	879
316.45 K, 6030 kPa, x1 = 0.624	912
316.45 K, 10030 kPa, x1 = 0.624	917
316.45 K, 13210 kPa, x1 = 0.624	920
316.45 K, 17280 kPa, x1 = 0.624	926
317.55 K, 11280 kPa, x1 = 0.091	882
317.55 K, 14550 kPa, x1 = 0.091	913
317.55 K, 16520 kPa, x1 = 0.091	930
317.85 K, 8520 kPa, x1 = 0.156	887
317.85 K, 11140 kPa, x1 = 0.156	898
317.85 K, 12310 kPa, x1 = 0.156	899
317.95 K, 7340 kPa, x1 = 0.264	858
317.95 K, 9000 kPa, x1 = 0.264	863
317.95 K, 11830 kPa, x1 = 0.264	872
317.95 K, 15410 kPa, x1 = 0.264	882
320.75 K, 10340 kPa, x1 = 0.122	910
320.75 K, 11760 kPa, x1 = 0.122	924
320.75 K, 14380 kPa, x1 = 0.122	944
322.95 K, 4760 kPa, x1 = 0.857	905
322.95 K, 8520 kPa, x1 = 0.857	909
322.95 K, 12620 kPa, x1 = 0.857	914
322.95 K, 17030 kPa, x1 = 0.857	918
325.15 K, 7000 kPa, x1 = 0.339	932
325.15 K, 10590 kPa, x1 = 0.339	941
325.15 K, 15280 kPa, x1 = 0.339	952
326.65 K, 11620 kPa, x1 = 0.039	667
326.65 K, 12280 kPa, x1 = 0.039	690
326.65 K, 13620 kPa, x1 = 0.039	725
327.35 K, 10790 kPa, x1 = 0.091	808
327.35 K, 11520 kPa, x1 = 0.091	822
327.35 K, 13340 kPa, x1 = 0.091	848
327.35 K, 15830 kPa, x1 = 0.091	875
328.75 K, 9900 kPa, x1 = 0.156	872
328.75 K, 11000 kPa, x1 = 0.156	878
328.75 K, 13900 kPa, x1 = 0.156	890
329.15 K, 10450 kPa, x1 = 0.017	407
329.15 K, 11930 kPa, x1 = 0.017	574

Liquid, linear displacement
Settings	mass density [kg/m3]
305.05 K, x1 = 0.624	919
307.45 K, x1 = 0.339	937
307.55 K, x1 = 0.857	916
309.15 K, x1 = 0.122	934
309.95 K, x1 = 0.017	621
311.75 K, x1 = 0.033	747
315.25 K, x1 = 0.039	682
315.45 K, x1 = 0.062	766
316.45 K, x1 = 0.624	907
317.55 K, x1 = 0.091	841
317.85 K, x1 = 0.156	885
317.95 K, x1 = 0.264	856
320.75 K, x1 = 0.122	890
322.95 K, x1 = 0.857	900
325.15 K, x1 = 0.339	929
326.65 K, x1 = 0.039	595
327.35 K, x1 = 0.091	794
328.75 K, x1 = 0.156	868
